Consider 1 sequence from publication PMC9046087, “Structural basis of tethered agonism of the adhesion GPCRs ADGRD1 and ADGRF1” (Nature, 2022).

Changes are numbered by the printed parent chain. pEC50: −log10 of the molar value. Ends that are not written are not given here.

A word on the pEC50: it is −log10 of the EC50, conventionally taken in molar units. A higher pEC50 goes with a small EC50.

Assay in all cases: BRET assay using TRUPATH biosensors, Gi activation of ADGRF1
What all share (type): cell-based
Background: Bioluminescence resonance energy transfer reports proximity on the nanometre scale.

Assay [1] deals with T1, ADGRF1 (Homo sapiens, UniProt Q5T601, V732A).
T1 construct: Flag (N); expressed in transfected cells; host or cells: HEK293F
T1 sequence (Q5T601 20-910 V732A): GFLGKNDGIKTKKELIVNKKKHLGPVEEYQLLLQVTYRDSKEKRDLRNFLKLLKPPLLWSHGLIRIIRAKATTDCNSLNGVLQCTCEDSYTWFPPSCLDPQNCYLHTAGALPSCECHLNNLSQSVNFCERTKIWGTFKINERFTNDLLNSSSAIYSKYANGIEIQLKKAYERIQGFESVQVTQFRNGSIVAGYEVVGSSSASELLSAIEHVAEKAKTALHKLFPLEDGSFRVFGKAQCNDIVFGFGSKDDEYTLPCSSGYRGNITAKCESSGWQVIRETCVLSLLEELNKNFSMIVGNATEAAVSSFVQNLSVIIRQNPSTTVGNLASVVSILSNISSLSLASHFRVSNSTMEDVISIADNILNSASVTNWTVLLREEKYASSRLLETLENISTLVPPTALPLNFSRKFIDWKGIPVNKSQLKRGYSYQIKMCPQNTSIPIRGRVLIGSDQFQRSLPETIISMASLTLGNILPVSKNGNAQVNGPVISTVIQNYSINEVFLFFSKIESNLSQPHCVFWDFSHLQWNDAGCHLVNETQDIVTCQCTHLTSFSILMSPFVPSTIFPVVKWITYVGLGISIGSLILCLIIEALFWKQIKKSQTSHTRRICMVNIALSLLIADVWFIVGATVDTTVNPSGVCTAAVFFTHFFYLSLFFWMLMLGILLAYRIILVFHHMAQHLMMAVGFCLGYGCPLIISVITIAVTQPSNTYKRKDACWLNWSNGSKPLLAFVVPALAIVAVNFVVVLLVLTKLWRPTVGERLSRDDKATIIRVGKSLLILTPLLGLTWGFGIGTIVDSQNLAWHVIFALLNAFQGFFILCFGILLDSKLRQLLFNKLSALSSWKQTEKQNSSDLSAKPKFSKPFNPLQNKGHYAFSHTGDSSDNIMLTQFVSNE
The settings on record: ADGRF1 V732^ECL2A, n = 3. The procedure, abridged:
(§1)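 HEK293F cells transiently co-transfected with wild-type or mutant receptor, Gα-RLuc8 (GαsS for Gs, Gαi1 for Gi), Gβ3 and Gγ9-GFP2 at 2:1:1:1. After 30 min at 37 °C and coelenterazine 400a, cells stimulated with synthetic stalk peptide. BRET = GFP2/RLuc8 emission, last of five readings.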

Assay [2] deals with T2, ADGRF1 (Homo sapiens, UniProt Q5T601, F823A).
T2 construct: Flag (N); expressed in transfected cells; host or cells: HEK293F
T2 sequence (Q5T601 20-910 F823A): as the sequence (Q5T601 20-910 V732A) above, with A713V, F804A counted along it
Conditions: ADGRF1 F823^7.42bA. In outline:
as §1

Assay [3] concerns the target T3, ADGRF1 (Homo sapiens, UniProt Q5T601, M627A).
T3 construct: Flag (N); expressed in transfected cells; host or cells: HEK293F
Conditions: ADGRF1 M627^2.50bA. The procedure, abridged:
as §1

Assay [4] deals with T4, ADGRF1 (Homo sapiens, UniProt Q5T601, V585A).
T4 construct: Flag (N); expressed in transfected cells; host or cells: HEK293F
T4 sequence (Q5T601 20-910 V585A): as the sequence (Q5T601 20-910 V732A) above, with V566A, A713V counted along it
The settings on record: ADGRF1 V585^1.36bA. In outline: as §1

In assay [5] the target is T5, ADGRF1 (Homo sapiens, UniProt Q5T601, K791A).
T5 construct: Flag (N); expressed in transfected cells; host or cells: HEK293F
T5 sequence (Q5T601 20-910 K791A): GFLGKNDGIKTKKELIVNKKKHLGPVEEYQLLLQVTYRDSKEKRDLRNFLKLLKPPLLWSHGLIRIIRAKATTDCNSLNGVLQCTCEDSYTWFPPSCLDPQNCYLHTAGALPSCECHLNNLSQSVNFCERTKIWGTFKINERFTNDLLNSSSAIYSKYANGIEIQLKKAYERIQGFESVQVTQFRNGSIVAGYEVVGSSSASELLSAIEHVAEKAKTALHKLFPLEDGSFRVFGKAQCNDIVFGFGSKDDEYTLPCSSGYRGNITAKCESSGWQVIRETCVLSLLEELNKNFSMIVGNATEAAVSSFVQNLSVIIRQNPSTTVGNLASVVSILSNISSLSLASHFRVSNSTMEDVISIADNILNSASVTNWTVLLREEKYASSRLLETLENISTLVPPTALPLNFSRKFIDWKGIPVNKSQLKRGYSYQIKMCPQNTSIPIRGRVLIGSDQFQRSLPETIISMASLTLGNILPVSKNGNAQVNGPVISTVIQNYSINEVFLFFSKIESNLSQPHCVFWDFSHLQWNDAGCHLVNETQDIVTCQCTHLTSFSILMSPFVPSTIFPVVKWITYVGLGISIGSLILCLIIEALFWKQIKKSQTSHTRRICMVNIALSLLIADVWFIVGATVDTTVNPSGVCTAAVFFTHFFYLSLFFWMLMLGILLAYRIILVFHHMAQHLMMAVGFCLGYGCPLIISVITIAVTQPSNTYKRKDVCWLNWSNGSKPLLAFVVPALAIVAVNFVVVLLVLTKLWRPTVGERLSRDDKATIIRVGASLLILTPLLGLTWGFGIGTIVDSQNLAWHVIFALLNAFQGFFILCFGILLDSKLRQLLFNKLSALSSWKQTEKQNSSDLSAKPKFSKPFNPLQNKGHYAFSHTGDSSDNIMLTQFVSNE
The settings on record: ADGRF1 K791^6.40bA. The procedure, abridged: as §1

Assay [6] deals with T6, ADGRF1 (Homo sapiens, UniProt Q5T601, V689A).
T6 construct: Flag (N); expressed in transfected cells; host or cells: HEK293F
T6 sequence (Q5T601 20-910 V689A): T5 sequence (Q5T601 20-910 K791A) with V670A, A772K
Conditions: ADGRF1 V689^ICL2A. The procedure, abridged: as §1

Assay [7] deals with T7, ADGRF1 (Homo sapiens, UniProt Q5T601, V765A).
T7 construct: Flag (N); expressed in transfected cells; host or cells: HEK293F
T7 sequence (Q5T601 20-910 V765A): as the sequence (Q5T601 20-910 V732A) above, with A713V, V746A counted along it
The settings on record: ADGRF1 V765^5.57bA. In outline: as §1

The mark [8] stands for this setting: n = 3, read-out: pEC50 (mean ± s.e.m.) (converted).

T3 sequence (Q5T601 20-910 M627A): as the sequence (Q5T601 20-910 V732A) above, with M608A, A713V counted along it

In assay [1], TSFSILMSPFVP [pF1] had a pEC50 of 5.71. Besides, the “Emax (mean ± s.e.m.)” value in assay [1] is given as 73 ± 13 % of WT; in assay [2] (n = 3), 90 ± 14 % of WT; in assay [3] (n = 3) it was 113 ± 8 % of WT; in assay [4] (n = 3), 84 ± 8 % of WT; in assay [5] (n = 3), 102 ± 13 % of WT; in assay [6] (n = 3), 67 ± 7 % of WT. In addition, the “Emax (mean ± s.e.m.)” value in assay [7] (n = 3) is reported as 92 ± 16 % of WT. Further, the EC50 in assay [2] (setting [8]) was 0.316 µM; in assay [3] (setting [8]) it was 0.692 µM; in assay [4] (setting [8]), 0.437 µM; in assay [5] (setting [8]), 0.102 µM; in assay [6] (setting [8]), 0.263 µM; in assay [7] (setting [8]), 0.912 µM.
